Assay [1] deals with PC12 cells. In words: MTT conversion assay of cell viability under serum deprivation. In kind it is cell-based, rat.
For another assay, the target named is T1, KOR (Rattus norvegicus, UniProt P34975).
T1 construct: confirming that the KOR ligands we used have proper activities and that functional KOR is expressed in PC12 cells; endogenous in cells; host or cells: PC12 (rat pheochromocytoma)
In kind it is cell-based. As to conditions: agonist 1 μM, 10 min, Ro-20-1724 pretreatment.

Assay [2] concerns PC12 cells. Description: Competition binding assay of 125I-labeled leumorphin in PC12 cells. The arrangement: species or system rat. The protocol: Ligand binding analysis was performed as previously described (Bae et al., 2004). Briefly, PC12 cells were seeded at a density of 4×10^5 cells/well into a 12-well plate and cultured overnight. After incubating the cells in blocking buffer (33 mM HEPES (pH 7.5) and 0.1% BSA in RPMI 1640) for 2 hr, 25 pM of ^125I-labeled leumorphin dissolved in binding buffer (PBS containing 0.1% BSA) was added to the cells in the absence or presence of unlabeled ligands and incubated for 3 hr at 4° C. The samples were then washed five times with ice-cold binding buffer, and 500 μl of 1 N NaOH was added to each well. After 10 min at room temperature, the lysates were collected and counted using a gamma counter.
We investigated the possibility that leumorphin might have another binding site(s), in addition to the binding site for the KOR in PC12 cells. That is, an inhibition of [^125I]leumorphin binding in PC12 cells was investigated. PC12 cells were treated with various concentrations of unlabeled leumorphin, (−)-U-50488 and nor-BNI in the presence of ^125I-labeled leumorphin (25 pM) for 3 hr at 4° C. Specifically bound ^125I-labeled leumorphin was measured as described in “Materials and Methods”. For this purpose, we performed competition binding assay of ^125I-labeled leumorphin with unlabeled-agonists, leumorphin and (−)-U-50488, and an antagonist, nor-BNI.

The test system of assay [3] is AKT and ERK. It is filed as cell-based, rat.
Assay [4] deals with AKT and ERK. Description: AKT and ERK phosphorylation in HEK-293 cells that do not express the KOR. The settings on record: data not shown. It is filed as cell-based.
In a further assay the test system is EGFR. Description: EGFR tyrosine phosphorylation, immunoprecipitation and Western blot in PC12 cells. It is filed as cell-based, rat. As to conditions: indicated doses for 10 min; 1 μM for indicated times. On the procedure: Immunoprecipitation was performed as previously described (Daub et al., 1997). In brief, cells were washed with ice-cold PBS and lysed with lysis buffer (50 mM HEPES pH 7.5, 150 mM NaCl, 1% Triton X-100, 1 mM EDTA, 10% glycerol) containing protease inhibitors (0.5 mM PMSF, 1 μg/ml leupeptin and 5 μg/ml aprotinin) and phosphatase inhibitors (30 mM NaF, 1 mM Na3VO4 and 30 mM Na4O7P2). The cell lysates were incubated for 1 hr at 4° C. After centrifugation (12,000×g for 15 min), equal amounts of soluble extract were incubated for 4 hr, with 5 μg of anti-EGFR antibody and 30 μl of resin volume of immobilized protein G For gel electrophoresis, the precipitates were dissolved in Laemmli sample buffer.
FIGS. 5C and 5D, PC12 cells were stimulated with the indicated doses of leumorphin for 10 min (C) or with 1 μM of leumorphin for the indicated times (D). […] Cell lysates were subjected to Western blot analysis after immunoprecipitation with EGFR antibodies. Tyrosine-phosphorylated EGFRs were detected by immunoblotting with phosphotyrosine antibodies. The amounts of the precipitated EGFRs were monitored by reprobing the same blot with EGFR antibodies. […] In FIG. 5G, PC12 cells were preincubated with 1 μM AG1478 or 5 μM PP2 for 20 min and then stimulated with 1 μM leumorphin for 10 min. Phosphorylation of AKT and ERK was detected by Western blot analysis as in FIG. 4F. C-E,

In assay [5] the test system is PC12 cells. In words: TUNEL apoptosis assay in serum-deprived PC12 cells. In kind it is cell-based, rat. The settings on record: leumorphin 1 μM, 24 hr. On the procedure:
TUNEL assay was performed according to the manufactures' instruction (Promega Corp.). Briefly, cells on coverslips were fixed with 4% paraformaldehyde for 30 min after stimulation, washed with PBS, permeabilized with 0.2% Triton X-100 for 5 min, rinsed with PBS, and were incubated with 25 μL TUNEL reaction mixture (containing enzyme, nucleotides, and fluorescein-dUTP) in a humidified atmosphere at 37° C. for 1 hr. To observe nuclear morphology, cells were counterstained with 2 μg/ml propidium iodide. Following these incubations, coverslips were rinsed with PBS three times and analyzed under conforcal microscopy We captured images which had at least 100 cells and used five different images from three independent experiments for statistic analysis.
It has been reported that in PC12 cells apoptosis can be induced by serum deprivation, which mimics the fluctuations in the supply of growth factors (Batistatou et al., 1993). […]
In FIG. 6A, Fragmentation of DNA in the nucleus was detected by a fluorescent TUNEL apoptosis assay. […] In FIG. 6D, caspase-3 activity was measured by using a specific fluorogenic substrate of caspase-3 (Ac-DEVD -AMC) as described in “Materials and Methods”.

Assay [6] deals with PC12 cells. Description: DNA ploidy analysis (FACS, sub-Go/Gl) in serum-deprived PC12 cells. In kind it is cell-based, rat. The settings on record: leumorphin 1 μM, 24 hr, serum deprivation; 35.7±2.2% without leumorphin. On the procedure:
Cells were suspended in PBS containing 5 mM EDTA and fixed in 100% ethanol. RNase A (50 μg/ml) was added to the suspended cells, and the cells were incubated at room temperature for 30 min. Propidium iodide (2 μg/ml) was added before reading. DNA contents of the cells were analyzed using a FACScan flow cytometer (Becton Dickinson, Franklin Lakes, N.J.), which was also used to determine the percentage of cells in the different phases of the cell cycle.
(§1) In FIG. 6A, Fragmentation of DNA in the nucleus was detected by a fluorescent TUNEL apoptosis assay. TUNEL stainings are shown in a-c, PI stainings are shown in d-f, and the merged images are presented in g-i. […] Each bar represents a fold increase of TUNEL-positive population of cells after treatment as indicated in serum-deprived condition versus those in serum-growing condition. In FIG. 6C, in order to analyze DNA ploidy, cells were fixed with ethanol, and FACS analysis was performed as described in “Materials and Methods”. In FIG. 6D, caspase-3 activity was measured by using a specific fluorogenic substrate of caspase-3 (Ac-DEVD -AMC) as described in “Materials and Methods”.

Another assay relates to caspase-3. Description: Caspase-3 enzymatic activity in PC12 cell lysates. It is filed as cell-based, rat. As to conditions: leumorphin 1 μM, 24 hr. On the procedure: PC12 cell lysates were centrifuged at 1,000×g for 10 min. Equal amount of supernatant (20 μg protein) was diluted in buffer containing 100 mM Hepes, 10% sucrose, 5 mM dithiothreitol, […], and 0.1% CHAPS (pH 7.25), and was added to each well of a 96-well plate containing 50 μM DEVD-aminomethylcoumarin (AMC). After incubation at 37° C. for 1 hr, the cleaved free AMC was detected using a fluorospectrophotometer (excitation of 355 nm, emission of 460 nm).
as §1

T1 sequence (P34975 whole entry): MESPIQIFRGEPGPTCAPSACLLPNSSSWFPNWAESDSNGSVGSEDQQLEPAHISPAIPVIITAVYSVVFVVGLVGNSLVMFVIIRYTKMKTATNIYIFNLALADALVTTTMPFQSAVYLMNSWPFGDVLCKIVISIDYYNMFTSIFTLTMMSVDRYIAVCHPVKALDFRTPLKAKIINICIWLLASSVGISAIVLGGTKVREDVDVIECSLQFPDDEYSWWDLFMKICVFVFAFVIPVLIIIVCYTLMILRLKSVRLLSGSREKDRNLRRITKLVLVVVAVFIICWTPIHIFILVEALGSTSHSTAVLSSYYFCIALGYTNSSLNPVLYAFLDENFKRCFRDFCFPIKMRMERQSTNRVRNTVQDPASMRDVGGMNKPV

Turning to leumorphin, in the assay on PC12 cells [1], the “cell viability (MTT conversion, percentage of surviving cells)” value is “specifically enhanced”; the “dose- and time-dependence of enhancement of cell viability” value is “dose-(FIG. 1D) and a time-dependent (FIG. 1E) manner”. Further, the “effect on forskolin-induced increase of cAMP contents” value in the assay with KOR is “inhibitory effect”. In the assay with PC12 cells [2], the “concentration up to which the inhibitory extent continued to increase” value was 10 µM and the “replacement of labeled leumorphin” value is “completely replaced”. Besides, in the assay with AKT and ERK [3], the “phosphorylation of AKT and ERK” value was “specifically induced phosphorylation of both AKT and ERK”. Further, the “phosphorylation of AKT and ERK in HEK-293 cells” value in the assay on AKT and ERK [4] was “specifically induced phosphorylation of AKT and ERK”. The “tyrosine phosphorylation of EGFR” value with EGFR was “induced tyrosine phosphorylation of EGFR in dose- and time-dependent manner”. Moreover, the “population of TUNEL-positive cells increased by serum deprivation” value with PC12 cells [5] is “significantly reduced”. In the assay on PC12 cells [6], the “sub-Go/Gl area, indicative of the apoptotic population” value turned out to be 25.8±1.8%. Further, the “activity of caspase-3 elevated by serum-deprivation” value in the assay with caspase-3 is listed as “decreased”.
